{
  "source": "paper PMC4418665",
  "about": "“Cyclization of the Urokinase Receptor-Derived Ser-Arg-Ser-Arg-Tyr Peptide Generates a Potent Inhibitor of Trans-Endothelial Migration of Monocytes” (PLoS ONE, 2015)",
  "system": "GFP-tagged THP-1 cells on endothelial monolayer (HUVECs)",
  "test": "Monocyte diapedesis: GFP-tagged THP-1 cells on HUVEC monolayer",
  "type": "cell-based, human",
  "conditions": "10 nM peptide, 30 minutes, 37°C, 10 fields/slide",
  "source_text": "Diapedesis of leukocytes plays a key role in the pathogenesis of inflammatory diseases and migration of monocytes from the blood into the sub-endothelial space is one of the earliest events. We investigated the effects of [SRSRY] on the number and morphology of THP-1 seeded to an endothelial monolayer. […] (Fig 5A). To examine the changes in morphology in more detail and quantify monocytes interacting with endothelial monolayer, we performed a subset of experiments using GFP-tagged THP-1, labeling co-cultures for F-actin and recording images by a confocal microscope. […] To further ascertain if [SRSRY] reduces trans-endothelial migration of monocytes, the ability of THP-1 cells to cross an endothelial monolayer was analyzed using the xCELLigence RTCA technology as previously described. […] At this time, reduction of impedance values, due to invading cells that interrupt monolayers was monitored in real-time for 10 hours. […]\nFig 5 [SRSRY] prevents trans-endothelial migration of THP-1 cells. […] Representative images of co-cultures analyzed by phase contrast microscopy at 100x with Scale bar: 50 μm (A) or stained with rhodamine- phalloidin and recorded by a confocal microscope (z-series with 0.25 μm intervals) at 630x with Scale bar: 10 μm (B). […] Fluorescent THP-1 cells which were adherent on the endothelial monolayer were counted on 10 fields/slide at 200x magnification. […]",
  "note": "Peptide text beside a SMILES is read from it.",
  "data": [
    {"smiles": "N=C(N)NCCC[C@@H]1NC(=O)[C@H](CO)NC(=O)[C@H](Cc2ccc(O)cc2)NC(=O)[C@H](CCCNC(=N)N)NC(=O)[C@H](CO)NC1=O", "note": "[[SRSRY], [Ser-Arg-Ser-Arg-Tyr]] (cyclo(RSRYS))", "values": [
      {"measurement": "reduction of GFP-THP-1 cell number interacting with endothelial monolayer", "result": 40, "unit": "%"}
    ]}
  ]
}
